From US20080146669A1, “Novel Chloride Channel Pore Openers” (THE UAB RESEARCH FOUNDATION, priority 2005, published 2008)

How the values were obtained:
[1] = Solubility limit on achievable dose; type: physicochemical; details: 200-400 μM doses impossible to achieve
[2] = target: T1, AR-S660A-CFTR (Homo sapiens, UniProt P13569, DEL708-835/S660A); assay: Macroscopic currents in excised HEK-293T patches, R domain deletion mutant, no PKA; type: biochemical; details: 10 μM
T1 construct: expressed in transfected cells; host or cells: HEK-293T, transient
Method: (§1) Cell culture DNA constructs and transfections. Baby hamster kidney (BHK) cells stably expressing wild type human CFTR (BHK-CFTR) were provided by J. Hanrahan (McGill University). BHK-CFTR cells were cultured in Dulbecco's modified Eagle's medium (DMEM (Mediatech)) supplemented with 5% fetal bovine serum (FBS) and 1 mM penicillin-streptomycin. The growth media for the BHK-CFTR cells also contained 0.5 mM methotrexate to maintain selection for CFTR-expressing cells (22). HEK-293T cells were transiently transfected with wild-type or mutant CFTR cDNA using the Lipofectamine transfection kit following manufacturer's recommendations (Invitrogen, Corp). HEK-293T cells were cultured in DMEM. All cells were grown on plastic coverslips for patch clamp recording and were used 2-3 days post-seeding. Electrophysiology and data analysis. Macroscopic and multi-channel currents were recorded in the excised, inside-out configuration. Patch pipettes were pulled from Corning 8161 glass to tip resistances of […] (macroscopic recordings) or 8-10 mOhm (micropatch studies). CFTR channels were activated following patch excision by exposure of the cytoplasmic face of the patch to catalytic subunit of protein kinase A (PKA; 110 U/ml; Promega) and Mg-ATP (1.5 mM). CFTR currents were recorded in symmetrical solution containing (in mM): 140 N-methyl-D-glucaniine-Cl, 3 MgCl2, 1 EGTA and 10 TES. […]

[3] = target: T2, ΔF508-CFTR (Homo sapiens, UniProt P13569, DEL508-508); assay: Macroscopic currents in excised patches from temperature-corrected HEK-293T cells expressing ΔF508-CFTR; type: biochemical
T2 construct: expressed in transfected cells; host or cells: HEK-293T, transient; grown at 28° C. for 24 hrs
Method: (§2) Cell culture DNA constructs and transfections. Baby hamster kidney (BHK) cells stably expressing wild type human CFTR (BHK-CFTR) were provided by J. Hanrahan (McGill University). BHK-CFTR cells were cultured in Dulbecco's modified Eagle's medium (DMEM (Mediatech)) supplemented with 5% fetal bovine serum (FBS) and 1 mM penicillin-streptomycin. The growth media for the BHK-CFTR cells also contained 0.5 mM methotrexate to maintain selection for CFTR-expressing cells (22). HEK-293T cells were transiently transfected with wild-type or mutant CFTR cDNA using the Lipofectamine transfection kit following manufacturer's recommendations (Invitrogen, Corp). HEK-293T cells were cultured in DMEM. All cells were grown on plastic coverslips for patch clamp recording and were used 2-3 days post-seeding. Electrophysiology and data analysis. Macroscopic and multi-channel currents were recorded in the excised, inside-out configuration. Patch pipettes were pulled from Corning 8161 glass to tip resistances of […] (macroscopic recordings) or 8-10 mOhm (micropatch studies). CFTR channels were activated following patch excision by exposure of the cytoplasmic face of the patch to catalytic subunit of protein kinase A (PKA; 110 U/ml; Promega) and Mg-ATP (1.5 mM). CFTR currents were recorded in symmetrical solution containing (in mM): 140 N-methyl-D-glucaniine-Cl, 3 MgCl2, 1 EGTA and 10 TES. The pH was adjusted to 7.3. Macroscopic currents were evoked using a ramp protocol from +80 to −80 mV with a 10 sec time period. Patches were held at −80 mV or +80 mV for micropatch (multichannel) recordings. All patch clamp experiments were performed at 21-23° C. Signals from macroscopic and single channel recording were filtered at 20 and 200 Hz, respectively. Data acquisition and analysis were performed using pCLAMP8 and pCLAMP9 software (Axon Instruments). Curve fitting for kinetic analysis was performed using Microcal Origin software. Averaged data are presented as mean +/−SEM. Statistical comparisons were made by performing unpaired t-tests unless otherwise indicated. Ussing Chamber Experiments-CFBE41o epithelial cells stably transfected with ΔF508-CFTR or transiently transfected with wild-type CFTR were cultured as electrically resistive monolayers and assayed in Ussing chambers as described (16). ΔF508-CFTR-expressing monolayers were grown at 27° C. for 2-3 days to enhance the surface expression of this temperature-sensitive mutant. A serosal-to-mucosal Cl^− gradient (120 to 1.2 mM) was imposed, followed by amiloride addition (100 μM) to block Na^+ currents. Compounds were added to both chambers at the indicated concentrations. A 3-mV voltage pulse was imposed every 100 s to monitor transepithelial resistance.

[4] = target: T3, G551D-CFTR (Homo sapiens, UniProt P13569, G551D); assay: Macroscopic currents in excised patches from HEK-293T cells expressing G551D-CFTR; type: biochemical; details: 10 μM
T3 construct: expressed in transfected cells; host or cells: HEK-293T, transient
Method: as §2, with “Ussing Chamber Experiments-CFBE41o epithelial cells stably transfected with ΔF508-CFTR or transiently transfected with wild-type CFTR were cultured as electrically resistive monolayers and assayed in Ussing chambers as described (16). ΔF508-CFTR-expressing monolayers were grown at 27° C. for 2-3 days to enhance the surface expression of this temperature-sensitive mutant. A serosal-to-mucosal Cl^− gradient (120 to 1.2 mM) was imposed, followed by amiloride addition (100 μM) to block Na^+ currents. Compounds were added to both chambers at the indicated concentrations. A 3-mV voltage pulse was imposed every 100 s to monitor transepithelial resistance.” left out

[5] = target: wild-type CFTR (Homo sapiens, UniProt P13569); assay: Ussing chamber transepithelial chloride currents, wild type CFTR-expressing CFBE41o- monolayers; type: cell-based; set-up: expressed in transfected cells; host or cells: HEK-293T, transient (Lipofectamine); details: 120 nM to 12 μM
Method: as §1

[6] = system: CFTR-minus cells; assay: Currents across patches excised from CFTR-minus (untransfected) cells; type: biochemical
Method: as §2

[7] = target: T2, ΔF508-CFTR; assay: Ussing chamber transepithelial chloride currents, temperature-corrected ΔF508-CFTR CFBE41o- monolayers; type: cell-based
Method: as §2

[8] = system: parental CFBE41o- monolayers; assay: Ussing chamber transepithelial currents, parental CFBE41o- monolayers; type: cell-based, human; details: n=6, data not shown
Method: as §1

T2 sequence (P13569 with tags, fused parts or gaps DEL508-508): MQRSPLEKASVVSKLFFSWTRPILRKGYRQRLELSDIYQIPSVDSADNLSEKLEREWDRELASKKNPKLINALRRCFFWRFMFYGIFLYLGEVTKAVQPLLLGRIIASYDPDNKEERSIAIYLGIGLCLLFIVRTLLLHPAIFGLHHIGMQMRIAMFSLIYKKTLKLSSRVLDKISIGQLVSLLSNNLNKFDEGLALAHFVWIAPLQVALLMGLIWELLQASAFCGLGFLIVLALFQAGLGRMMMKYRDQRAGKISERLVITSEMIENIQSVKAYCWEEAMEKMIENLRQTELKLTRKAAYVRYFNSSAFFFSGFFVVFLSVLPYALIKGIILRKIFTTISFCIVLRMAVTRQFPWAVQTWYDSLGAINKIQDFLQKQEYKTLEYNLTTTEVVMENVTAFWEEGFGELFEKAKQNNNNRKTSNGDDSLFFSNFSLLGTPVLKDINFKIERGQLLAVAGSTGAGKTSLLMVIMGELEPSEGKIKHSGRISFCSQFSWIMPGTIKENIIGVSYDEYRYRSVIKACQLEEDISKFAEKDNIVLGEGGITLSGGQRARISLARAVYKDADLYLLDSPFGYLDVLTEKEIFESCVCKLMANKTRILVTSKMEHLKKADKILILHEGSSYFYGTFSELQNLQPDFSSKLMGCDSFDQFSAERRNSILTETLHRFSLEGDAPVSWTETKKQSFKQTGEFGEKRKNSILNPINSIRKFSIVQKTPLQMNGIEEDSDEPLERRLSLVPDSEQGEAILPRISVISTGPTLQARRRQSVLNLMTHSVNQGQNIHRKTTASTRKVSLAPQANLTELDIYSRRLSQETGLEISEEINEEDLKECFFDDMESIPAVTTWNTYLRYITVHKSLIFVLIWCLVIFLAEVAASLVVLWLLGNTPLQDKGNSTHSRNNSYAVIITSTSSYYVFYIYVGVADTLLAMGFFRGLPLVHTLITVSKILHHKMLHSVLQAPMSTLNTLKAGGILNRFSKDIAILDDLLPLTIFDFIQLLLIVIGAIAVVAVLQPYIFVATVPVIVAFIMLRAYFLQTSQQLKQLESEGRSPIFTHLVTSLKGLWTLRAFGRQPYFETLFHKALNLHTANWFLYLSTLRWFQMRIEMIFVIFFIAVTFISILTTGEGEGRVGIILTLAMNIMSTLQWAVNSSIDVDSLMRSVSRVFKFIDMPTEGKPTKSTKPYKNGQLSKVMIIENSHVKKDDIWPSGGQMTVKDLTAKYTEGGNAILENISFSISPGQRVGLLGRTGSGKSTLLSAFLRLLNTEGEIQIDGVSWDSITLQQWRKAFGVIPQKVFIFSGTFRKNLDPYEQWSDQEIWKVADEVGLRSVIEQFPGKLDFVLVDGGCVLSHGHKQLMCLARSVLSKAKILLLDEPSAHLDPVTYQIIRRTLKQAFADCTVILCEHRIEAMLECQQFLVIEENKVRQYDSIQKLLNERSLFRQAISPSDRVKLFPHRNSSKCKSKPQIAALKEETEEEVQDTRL
T3 sequence (P13569 whole entry G551D): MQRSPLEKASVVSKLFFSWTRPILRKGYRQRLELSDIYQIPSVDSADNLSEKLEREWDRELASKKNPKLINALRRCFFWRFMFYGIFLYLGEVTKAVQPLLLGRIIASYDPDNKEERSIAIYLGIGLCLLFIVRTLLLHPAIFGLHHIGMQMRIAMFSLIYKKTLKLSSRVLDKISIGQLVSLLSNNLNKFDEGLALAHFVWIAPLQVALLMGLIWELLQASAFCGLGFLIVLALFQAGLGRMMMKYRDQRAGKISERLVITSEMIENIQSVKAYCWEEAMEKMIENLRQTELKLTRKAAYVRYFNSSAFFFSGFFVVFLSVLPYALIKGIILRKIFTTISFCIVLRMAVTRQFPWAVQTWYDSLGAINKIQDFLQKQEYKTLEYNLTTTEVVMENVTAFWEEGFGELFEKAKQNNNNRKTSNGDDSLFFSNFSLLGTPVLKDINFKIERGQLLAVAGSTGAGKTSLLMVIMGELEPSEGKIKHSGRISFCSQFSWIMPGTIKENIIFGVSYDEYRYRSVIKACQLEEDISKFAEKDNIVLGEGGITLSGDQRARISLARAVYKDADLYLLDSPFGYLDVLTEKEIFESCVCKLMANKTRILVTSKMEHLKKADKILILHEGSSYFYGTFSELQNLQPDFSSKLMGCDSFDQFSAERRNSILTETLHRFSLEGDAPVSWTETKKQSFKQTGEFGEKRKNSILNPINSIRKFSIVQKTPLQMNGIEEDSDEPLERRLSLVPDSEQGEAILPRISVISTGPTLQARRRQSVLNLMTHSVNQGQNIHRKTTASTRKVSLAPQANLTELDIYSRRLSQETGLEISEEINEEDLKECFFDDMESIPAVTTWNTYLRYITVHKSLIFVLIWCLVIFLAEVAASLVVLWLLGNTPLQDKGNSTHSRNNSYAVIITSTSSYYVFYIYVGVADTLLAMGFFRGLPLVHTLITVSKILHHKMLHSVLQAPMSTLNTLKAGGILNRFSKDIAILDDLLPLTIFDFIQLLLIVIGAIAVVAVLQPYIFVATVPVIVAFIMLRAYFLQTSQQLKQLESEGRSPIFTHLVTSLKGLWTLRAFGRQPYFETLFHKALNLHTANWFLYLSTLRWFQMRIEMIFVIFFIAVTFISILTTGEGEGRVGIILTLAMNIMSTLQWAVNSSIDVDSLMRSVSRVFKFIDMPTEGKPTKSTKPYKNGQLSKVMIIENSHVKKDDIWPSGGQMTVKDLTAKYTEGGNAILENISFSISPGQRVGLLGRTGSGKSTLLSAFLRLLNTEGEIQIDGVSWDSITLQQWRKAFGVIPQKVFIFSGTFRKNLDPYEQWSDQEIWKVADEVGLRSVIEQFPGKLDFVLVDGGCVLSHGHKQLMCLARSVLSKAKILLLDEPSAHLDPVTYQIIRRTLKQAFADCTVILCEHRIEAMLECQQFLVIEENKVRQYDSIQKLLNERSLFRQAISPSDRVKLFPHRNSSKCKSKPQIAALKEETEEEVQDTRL
Sequence of wild-type CFTR (P13569 whole entry): as the sequence (P13569 whole entry G551D) above, with D551G counted along it
T1 sequence (P13569 with tags, fused parts or gaps S660A/DEL708-835): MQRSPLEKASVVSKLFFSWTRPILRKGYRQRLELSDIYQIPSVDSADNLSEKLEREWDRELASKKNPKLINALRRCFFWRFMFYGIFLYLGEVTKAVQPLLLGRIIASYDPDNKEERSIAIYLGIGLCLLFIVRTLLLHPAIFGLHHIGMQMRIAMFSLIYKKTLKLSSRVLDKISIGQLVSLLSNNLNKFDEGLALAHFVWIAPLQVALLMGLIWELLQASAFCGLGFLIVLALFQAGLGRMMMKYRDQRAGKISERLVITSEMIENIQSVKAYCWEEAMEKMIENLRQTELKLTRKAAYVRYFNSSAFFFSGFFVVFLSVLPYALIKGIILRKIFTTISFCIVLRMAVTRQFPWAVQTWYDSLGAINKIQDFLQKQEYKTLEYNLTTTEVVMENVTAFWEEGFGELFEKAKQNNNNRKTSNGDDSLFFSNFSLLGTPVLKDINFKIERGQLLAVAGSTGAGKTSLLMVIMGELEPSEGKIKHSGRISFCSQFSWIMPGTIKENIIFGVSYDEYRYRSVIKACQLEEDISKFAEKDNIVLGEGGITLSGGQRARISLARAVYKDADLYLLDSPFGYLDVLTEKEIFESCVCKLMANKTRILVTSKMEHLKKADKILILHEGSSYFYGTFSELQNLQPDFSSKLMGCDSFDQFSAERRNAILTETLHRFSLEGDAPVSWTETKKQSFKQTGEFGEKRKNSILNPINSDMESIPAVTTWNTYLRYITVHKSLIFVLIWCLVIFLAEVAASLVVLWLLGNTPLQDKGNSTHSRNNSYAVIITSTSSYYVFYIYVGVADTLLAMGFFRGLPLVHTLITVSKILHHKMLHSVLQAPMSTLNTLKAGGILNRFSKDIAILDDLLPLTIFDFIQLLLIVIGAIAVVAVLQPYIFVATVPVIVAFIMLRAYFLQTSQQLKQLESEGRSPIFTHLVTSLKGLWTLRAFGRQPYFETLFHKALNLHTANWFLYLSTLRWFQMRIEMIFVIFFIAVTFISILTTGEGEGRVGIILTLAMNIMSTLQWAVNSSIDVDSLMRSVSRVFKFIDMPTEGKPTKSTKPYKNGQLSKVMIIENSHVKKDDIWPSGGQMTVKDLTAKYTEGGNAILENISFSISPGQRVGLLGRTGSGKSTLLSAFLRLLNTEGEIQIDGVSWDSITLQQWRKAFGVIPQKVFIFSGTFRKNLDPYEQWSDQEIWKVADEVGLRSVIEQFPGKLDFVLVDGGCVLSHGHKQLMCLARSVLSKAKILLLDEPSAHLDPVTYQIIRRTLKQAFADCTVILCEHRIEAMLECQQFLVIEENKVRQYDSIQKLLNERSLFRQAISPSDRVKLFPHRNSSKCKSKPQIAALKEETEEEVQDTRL

Question: Which “solubility relative to NPPB” value [1] does the source give for `NC(=O)c1cc([N+](=O)[O-])ccc1NCCCc1ccccc1` [NPPB-Am] here?
Answer: less soluble

Question: What about the “effect on currents in the absence of PKA” value [2] of the same molecule?
Answer: markedly stimulate

Question: And the “increase in ΔF508-CFTR macroscopic currents” value ([3]; 10 μM, 1.5 mM Mg-ATP and 110 U/ml PKA)?
Answer: 10-15 fold

Question: And the “effect on ΔF508-CFTR macroscopic currents” value ([3]; 10 μM, high PKA 110 U/ml without PKI)?
Answer: dramatically stimulated

Question: And the “effect on ΔF508-CFTR channel activity in the absence of active kinase” value ([3]; added after PKI)?
Answer: markedly stimulated

Question: And the “effect on G551D-CFTR activity” value [4]?
Answer: only modestly stimulated

Question: What about the “effect on transepithelial currents without cAMP agonist” value [5] of the same molecule?
Answer: stimulated the transepithelial currents

Question: And the “effect on currents across membrane patches excised from CFTR-minus cells” value ([6]; data not shown)?
Answer: no effect

Question: And the “effect on currents across a patch from untransfected HEK-293T cells” value ([6]; untransfected HEK-293T)?
Answer: neither

Question: What about the “effect on transepithelial currents without cAMP agonist” value ([7]; 120 nM to 12 μM) of the same molecule?
Answer: stimulated the transepithelial currents

Question: And the “potentiation of the forskolin effect on ΔF508-CFTR transepithelial currents” value ([7]; 1 μM compound with 1 μM forskolin, N=8-12)?
Answer: markedly potentiated the effect of forskolin

Question: What about the “stimulated transepithelial current with H89” value ([7]; prior treatment with H89 100 μM, n=4, monolayer type (wild-type or ΔF508) not stated) of the same molecule?
Answer: 5.5+/−1.3 μA/cm^2

Question: What about the “stimulated transepithelial current without H89” value ([7]; −H89, n=4, monolayer type (wild-type or ΔF508) not stated) of the same molecule?
Answer: 23.3+/−2.0 μA/cm^2

Question: What about the “increase in transepithelial current” value [8] of the same molecule?
Answer: 1.1+/−2.7 μA/cm^2
